Source: ChEMBL document CHEMBL1122893, “Bile acids with cyclopropane-containing side chain. 2. Synthesis and properties of 3 alpha,7 beta-dihydroxy-22,23-methylene-5 beta-cholan-24-oic acid (2-sulfoethyl)amide” (J Med Chem, 1985)

experiment: Evaluated for critical micellular concentration (CMC) by dye solubilization method

Row | Structure (SMILES) | CMC
1 | CC(CCC(=O)NCCS(=O)(=O)O)C1CC[C@H]2[C@@H]3[C@@H](O)CC4C[C@H](O)CCC4(C)[C@H]3CCC12C (stereo partly drawn) | 18 mM
2 | CC(C1CC1C(=O)O)C1CC[C@H]2[C@@H]3[C@@H](O)CC4C[C@H](O)CCC4(C)[C@H]3CCC12C (stereo partly drawn) | 15.5 mM
3 | CC(C1CC1C(=O)NCCS(=O)(=O)O)C1CC[C@H]2[C@@H]3[C@@H](O)CC4C[C@H](O)CCC4(C)[C@H]3CCC12C (stereo partly drawn) | 14.5 mM
